# Test results published in ChEMBL document CHEMBL3727348, “3-(aryl or heteroaryl) methyleneindolin-2-one derivatives as inhibitors of cancer stem cell pathway kinases for the treatment of cancer” (2014).
# Assays:
# Type in all cases: functional, cell-based
# [1] = system: ACHN; test: Cytotoxic activity against human ACHN cancer stem cells incubated for 72 hrs by Cell-titer-Glo luminescence assay
# [2] = system: A549; test: Cytotoxic activity against human A549 cancer stem cells incubated for 72 hrs by Cell-titer-Glo luminescence assay; conditions: A549, 72 h
# [3] = system: FaDu; test: Cytotoxic activity against human FADU bulk cells incubated for 72 hrs by Cell-titer-Glo luminescence assay
# [4] = system: FaDu; test: Cytotoxic activity against human FADU cancer stem cells incubated for 72 hrs by Cell-titer-Glo luminescence assay
# [5] = system: ACHN; test: Cytotoxic activity against human ACHN bulk cells incubated for 72 hrs by Cell-titer-Glo luminescence assay
# [6] = system: A549; test: Cytotoxic activity against human A549 bulk cells incubated for 72 hrs by Cell-titer-Glo luminescence assay; conditions: A549, 72 h
SMILES,IC50 [1],IC50 [2],IC50 [3],IC50 [4],IC50 [5],IC50 [6]
CCN(CC)CCNC(=O)c1c(C)[nH]c(/C=C2\C(=O)Nc3ccc(-c4ccc(C=O)cc4)cc32)c1C,4.34 µM,5.84 µM,12.1 µM,7.51 µM,2.81 µM,10.6 µM
CCN(CC)CCNC(=O)c1c(C)[nH]c(/C=C2\C(=O)Nc3ccc(-c4ccc(C(=O)O)s4)cc32)c1C,2.28 µM,8.82 µM,1.21 µM,4.3 µM,2.04 µM,2.2 µM
CCN(CC)CCNC(=O)c1c(C)[nH]c(/C=C2\C(=O)Nc3ccc(-c4cnc5ccccc5c4)cc32)c1C,0.62 µM,6.83 µM,4.59 µM,5.47 µM,6.39 µM,3.85 µM
Cc1cc(C)c(/C=C2\C(=O)Nc3ccc(-c4ccc(O)cc4C)cc32)[nH]1,21.1 µM,36.8 µM,14.7 µM,14.4 µM,14.9 µM,12.5 µM
CCN(CC)CCNC(=O)c1c(C)[nH]c(/C=C2\C(=O)Nc3ccc(-c4cnc5cccnn45)cc32)c1C,2.73 µM,6.64 µM,1.74 µM,0.06 µM,3.64 µM,3.66 µM
CCN(CC)CCNC(=O)c1c(C)[nH]c(/C=C2\C(=O)Nc3ccc(-c4ccccn4)cc32)c1C,1.06 µM,5.45 µM,2.56 µM,0.18 µM,2.26 µM,7.23 µM
CCN(CC)CCNC(=O)c1c(C)[nH]c(/C=C2\C(=O)Nc3ccc(-c4ccc(C)cn4)cc32)c1C,1.16 µM,3.38 µM,3.05 µM,0.22 µM,2.92 µM,6.51 µM
CCN(CC)CCNC(=O)c1c(C)[nH]c(/C=C2\C(=O)Nc3ccc(-c4ccc(-c5ccccc5)nc4)cc32)c1C,0.63 µM,6.45 µM,4.92 µM,3.96 µM,7.41 µM,2.3 µM
CCN(CC)CCNC(=O)c1c(C)[nH]c(/C=C2\C(=O)Nc3ccc(-c4ccc(OC)cc4C)cc32)c1C,1.42 µM,4.61 µM,2.31 µM,1.4 µM,2.26 µM,1.74 µM
CCN(CC)CCNC(=O)c1c(C)[nH]c(/C=C2\C(=O)Nc3cc(-c4csc(-n5cccn5)n4)ccc32)c1C,0.17 µM,2.93 µM,5.3 µM,0.78 µM,2.6 µM,5.8 µM
CCN(CC)CCNC(=O)c1c(C)[nH]c(/C=C2\C(=O)Nc3ccc(-c4ccc(OC)cn4)cc32)c1C,1.08 µM,8.89 µM,7.01 µM,0.16 µM,6.44 µM,10.8 µM
CCN(CC)CCNC(=O)c1c(C)[nH]c(/C=C2\C(=O)Nc3ccc(-c4nc5ccccc5s4)cc32)c1C,0.98 µM,4.13 µM,4.93 µM,5.97 µM,9.53 µM,3.73 µM
CCN(CC)CCNC(=O)CCc1c(C)[nH]c(/C=C2\C(=O)Nc3ccc(-c4csc(-c5ccncc5)n4)cc32)c1C,1.24 µM,35.7 µM,28 µM,4.57 µM,7.42 µM,10.1 µM
CCN(CC)CCNC(=O)c1c(C)[nH]c(/C=C2\C(=O)Nc3ccc(-c4cnc5ccccn45)cc32)c1C,3.44 µM,17.2 µM,4.63 µM,17.6 µM,4.65 µM,5.86 µM
CCN(CC)CCNC(=O)c1c(C)[nH]c(/C=C2\C(=O)Nc3ccc(-c4cnsc4)cc32)c1C,0.64 µM,6.66 µM,3.17 µM,3.42 µM,4.58 µM,3.79 µM
Cc1[nH]c(/C=C2\C(=O)Nc3ccc(-c4ccc(-c5ccccc5)s4)cc32)c(C)c1C(=O)N1CCOCC1,0.23 µM,11 µM,21.1 µM,2.47 µM,12.8 µM,10.1 µM
